Results as given in US10821115B2, “Compounds that inhibit Mcl-1 protein” (priority 2017, dated 2020).
Read-outs that look alike come from different tables or passages of the source.

Legend:
[1] = target: recombinant human Mcl-1 (residues 171-327) / Bim interaction (Homo sapiens (Human), UniProt Q07820); test: biochemical; assay type: binding; conditions: 0.1 nM Mcl-1(171-327), 0.05 nM biotin-Bim (51-76); read-out: Mcl-1 HTRF IC50
[2] = test system: human multiple myeloma cell line, OPM-2; test: Cell viability assay (OPM-2 10 FBS), CellTiter-Glo; assay type: cell-based
Procedure, shortened: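 Serially diluted test compounds are incubated 16 h with cells (3000/well) in RPMI 1640 supplemented with 10% FBS. Viability is then measured by luminescence and IC50 calculated by 4-parameter logistic fit.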

[3] = Homo sapiens, OPM-2, 16 h, read-out: OPM-2 10% FBS IC50 IP, OPM-2 cells, 10% FBS, 16 h incubation
[4] = read-out: OPM-2 10% FBS IC50 IP, OPM-2 cells, 10% FBS, 16 h incubation

Sequence of recombinant human Mcl-1 (residues 171-327) / Bim interaction (Q07820 171-327): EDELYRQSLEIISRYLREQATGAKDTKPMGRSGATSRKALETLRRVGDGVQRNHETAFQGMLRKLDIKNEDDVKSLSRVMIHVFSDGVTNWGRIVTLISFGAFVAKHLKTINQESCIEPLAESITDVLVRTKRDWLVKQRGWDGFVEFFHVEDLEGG

Row | SMILES | IC50 [1] | IC50 [2, 3] | IC50 [2, 4]
1 | COC(=O)CN1CCN(C[C@]2(OC)/C=C/C[C@H](C)[C@@H](C)S(=O)(=O)NC(=O)c3ccc4c(c3)N(C[C@@H]3CC[C@H]32)C[C@@]2(CCCc3cc(Cl)ccc32)CO4)CC1 [Example 269, methyl (4-(((1S,3′R,6′R,7′S,8′E,11′S,12′R)-6-chloro-7′-methoxy-11′,12′-dimethyl-13′,13′-dioxido-15′-oxo-3,4-dihydro-2H-spiro[naphthalene-1,22′-[20]oxa[13]thia[1,14]diazatetracyclo[14.7.2.0-3,6˜.0˜19,24˜]pentacosa[8,16,18,24]tetraen]-7′-yl)methyl)-1-piperazinyl)acetate] | 0.104 nM | 86 nM | 
2 | CO[C@@]1(CN2CCN(C3(C#N)COC3)CC2)/C=C/C[C@H](C)[C@@H](C)S(=O)(=O)NC(=O)c2ccc3c(c2)N(C[C@@H]2CC[C@H]21)C[C@@]1(CCCc2cc(Cl)ccc21)CO3 [Example 272, 3-(4-(((1S,3′R,6′R,7′S,8′E,11′S,12′R )-6-chloro-7′-methoxy-11′,12′-dimethyl-13′,13′-dioxido-15′-oxo-3,4-dihydro-2H-spiro[naphthalene-1,22′-[20]oxa[13]thia[1,14]diazatetracyclo [14.7.2.0~3,6~.0~19,24~]pentacosa[8,16,18,24]tetraen]-7′-yl)methyl)-1-piperazinyl)-3-oxetanecarbonitrile] | 0.144 nM | 137 nM | 
3 | CO[C@@]1(CN2CCN3CC[C@H](F)C[C@@H]3C2)/C=C/C[C@H](C)[C@@H](C)S(=O)(=O)NC(=O)c2ccc3c(c2)N(C[C@@H]2CC[C@H]21)C[C@@]1(CCCc2cc(Cl)ccc21)CO3 [Example 274] | 0.285 nM |  | 232 nM
4 | CO[C@@]1(CN2CC(N3CCS(=O)(=O)CC3)C2)/C=C/C[C@H](C)[C@@H](C)S(=O)(=O)NC(=O)c2ccc3c(c2)N(C[C@@H]2CC[C@H]21)C[C@@]1(CCCc2cc(Cl)ccc21)CO3 [Example 279, (1S,3′R,6′R,7′S,8′E,11′S,12′R)-6-chloro-7′-((3-(1,1-dioxido-4-thiomorpholinyl)-1-azetidinyl)methyl)-7′-methoxy-11′,12′-dimethyl-3,4-dihydro-2H,15′H-spiro[naphthalene-1,22′-[20]oxa[13]thia[1,14]diazatetracyclo [14.7.2.0~3,6~.0~19,24~]pentacosa[8,16,18,24]tetraen]-15′-one 13′,13′-dioxide] | 0.084 nM | 453 nM | 
5 | CO[C@@]1(CN2CCN(C3CN(C(C)=O)C3)CC2)/C=C/C[C@H](C)[C@@H](C)S(=O)(=O)NC(=O)c2ccc3c(c2)N(C[C@@H]2CC[C@H]21)C[C@@]1(CCCc2cc(Cl)ccc21)CO3 [Example 280, (1S,3′R,6′R,7′S,8′E,11′S,12′R)-7′-((4-(1-acetyl-3-azetidinyl)-1-piperazinyl)methyl)-6-chloro-7′-methoxy-11′,12′-dimethyl-3,4-dihydro-2H,15′H-spiro[naphthalene-1,22′-[20]oxa[13]thia[1,14]diazatetracyclo [14.7.2.0~3,6~.0~19,24~]pentacosa[8,16,18,24]tetraen]-15′-one 13′,13′-dioxide] | 0.052 nM | 73 nM | 
6 | CO[C@@]1(CN2CCN(C3CCC3)CC2)/C=C/C[C@H](C)[C@@H](C)S(=O)(=O)NC(=O)c2ccc3c(c2)N(C[C@@H]2CC[C@H]21)C[C@@]1(CCCc2cc(Cl)ccc21)CO3 [Example 281, (1S,3′R,6′R,7′S,8′E,11′S,12′R)-6-chloro-7′-((4-cyclobutyl-1-piperazinyl)methyl)-7′-methoxy-11′,12′-dimethyl-3,4-dihydro-2H,15′H-spiro[naphthalene-1,22′-[20]oxa[13]thia[1,14]diazatetracyclo [14.7.2.0~3,6~.0~19,24~]pentacosa[8,16,18,24]tetraen]-15′-one 13′,13′-dioxide] | 0.181 nM | 152 nM | 
7 | CO[C@@]1(CN2CCN(C3CN(C)C3)CC2)/C=C/C[C@H](C)[C@@H](C)S(=O)(=O)NC(=O)c2ccc3c(c2)N(C[C@@H]2CC[C@H]21)C[C@@]1(CCCc2cc(Cl)ccc21)CO3 [Example 282, (1S,3′R,6′R,7′S,8′E,11′S,12′R)-6-chloro-7′-methoxy-11′,12′-dimethyl-7′-((4-(1-methyl-3-azetidinyl)-1-piperazinyl)methyl)-3,4-dihydro-2H,15′H-spiro[naphthalene-1,22′-[20]oxa[13]thia[1,14]diazatetracyclo [14.7.2.0~3,6~.0~19,24~]pentacosa[8,16,18,24]tetraen]-15′-one 13′,13′-dioxide] | 0.118 nM | 486 nM | 
8 | CO[C@@]1(CN2CCC3(CC2)CN(C)C(=O)O3)/C=C/C[C@H](C)[C@@H](C)S(=O)(=O)NC(=O)c2ccc3c(c2)N(C[C@@H]2CC[C@H]21)C[C@@]1(CCCc2cc(Cl)ccc21)CO3 [Example 290, (1S,3′R,6′R,7′S,8′E,11′S,12′R)-6-chloro-7′-methoxy-11′,12′-dimethyl-7′-((3-methyl-2-oxo-1-oxa-3,8-diazaspiro[4.5]dec-8-yl)methyl)-3,4-dihydro-2H,15′H-spiro[naphthalene-1,22′-[20]oxa[13]thia[1,14]diazatetracyclo [14.7.2.0~3,6~.0~19,24~]pentacosa[8,16,18,24]tetraen]-15′-one 13′,13′-dioxide] | 0.215 nM | 149 nM | 
9 | CO[C@@]1(CN2CC3(C2)CN(C)C(=O)O3)/C=C/C[C@H](C)[C@@H](C)S(=O)(=O)NC(=O)c2ccc3c(c2)N(C[C@@H]2CC[C@H]21)C[C@@]1(CCCc2cc(Cl)ccc21)CO3 [Example 291, (1S,3′R,6′R,7′S,8′E,11′S,12′R)-6-chloro-7′-methoxy-11′,12′-dimethyl-7′-((7-methyl-6-oxo-5-oxa-2,7-diazaspiro[3.4]oct-2-yl)methyl)-3,4-dihydro-2H,15′H-spiro[naphthalene-1,22′-[20]oxa[13]thia[1,14]diazatetracyclo [14.7.2.0~3,6~.0~19,24~]pentacosa[8,16,18,24]tetraen]-15′-one 13′,13′-dioxide] | 0.083 nM | 104 nM | 
10 | CO[C@]1(CN2CCN3CCC(F)(F)C[C@@H]3C2)/C=C/C[C@H](C)[C@@H](C)S(=O)(=O)NC(=O)c2ccc3c(c2)N(C[C@@H]2CC[C@H]21)C[C@@]1(CCCc2cc(Cl)ccc21)CO3 [Example 292] | 0.356 nM |  | 399 nM
11 | CO[C@@]1(CN2CCN(c3ccc(B(O)O)c(C(C)=O)c3)CC2)/C=C/C[C@H](C)[C@@H](C)S(=O)(=O)NC(=O)c2ccc3c(c2)N(C[C@@H]2CC[C@H]21)C[C@@]1(CCCc2cc(Cl)ccc21)CO3 [Example 296, (2-acetyl-4-(4-(((1S,3′R,6′R,7′S,8′E,11′S, 12′R)-6-chloro-7′-methoxy-11′,12′-dimethyl-13′,13′-dioxido-15′-oxo-3,4-dihydro-2H-spiro[naphthalene-1,22′-[20]oxa[13]thia[1,14]diazatetracyclo [14.7.2.0~3,6~.0~19,24~]pentacosa[8,16,18,24]tetraen]-7′-yl)methyl)-1-piperazinyl)phenyl)boronic acid] | 0.211 nM | 1310 nM | 
12 | COCC(C)(C)N1CCN(C[C@]2(OC)/C=C/C[C@H](C)[C@@H](C)S(=O)(=O)NC(=O)c3ccc4c(c3)N(C[C@@H]3CC[C@H]32)C[C@@]2(CCCc3cc(Cl)ccc32)CO4)CC1 [Example 297, (1S,3′R,6′R,7′S,8′E,11′S,12′R)-6-chloro-7′-methoxy-7′-((4-(2-methoxy-1,1-dimethylethyl)-1-piperazinyl)methyl)-11′,12′-dimethyl-3,4-dihydro-2H,15′H-spiro[naphthalene-1,22′-[20]oxa[13]thia[1,14]diazatetracyclo [14.7.2.0~3,6~.0~19,24~]pentacosa[8,16,18,24]tetraen]-15′-one 13′,13′-dioxide] | 0.128 nM | 66 nM | 
13 | CO[C@@]1(CN2CCN(CCO)CC2)/C=C/C[C@H](C)[C@@H](C)S(=O)(=O)NC(=O)c2ccc3c(c2)N(C[C@@H]2CC[C@H]21)C[C@@]1(CCCc2cc(Cl)ccc21)CO3 [Example 300, (1S,3′R,6′R,7′S,8′E,11′S,12′R)-6-chloro-7′-((4-(2-hydroxyethyl)-1-piperazinyl)methyl)-7′-methoxy-11′,12′-dimethyl-3,4-dihydro-2H,15′H-spiro[naphthalene-1,22′-[20]oxa[13]thia[1,14]diazatetracyclo [14.7.2.0~3,6~.0~19,24~]pentacosa[8,16,18,24]tetraen]-15′-one 13′,13′-dioxide] | 0.165 nM | 284 nM | 
14 | CCCCN1CCN(C[C@]2(OC)/C=C/C[C@H](C)[C@@H](C)S(=O)(=O)NC(=O)c3ccc4c(c3)N(C[C@@H]3CC[C@H]32)C[C@@]2(CCCc3cc(Cl)ccc32)CO4)CC1 [Example 301, (1S,3′R,6′R,7′S,8′E,11′S,12′R)-7′-((4-butyl-1-piperazinyl)methyl)-6-chloro-7′-methoxy-11′,12′-dimethyl-3,4-dihydro-2H,15′H-spiro[naphthalene-1,22′-[20]oxa[13]thia[1,14]diazatetracyclo [14.7.2.0~3,6~.0~19,24~]pentacosa[8,16,18,24]tetraen]-15′-one 13′,13′-dioxide] | 0.196 nM | 141 nM | 
15 | COCCCN1CCN(C[C@]2(OC)/C=C/C[C@H](C)[C@@H](C)S(=O)(=O)NC(=O)c3ccc4c(c3)N(C[C@@H]3CC[C@H]32)C[C@@]2(CCCc3cc(Cl)ccc32)CO4)CC1 [Example 302, (1S,3′R,6′R,7′S,8′E,11′S,12′R)-6-chloro-7′-methoxy-7′-((4-(3-methoxypropyl)-1-piperazinyl)methyl)-11′,12′-dimethyl-3,4-dihydro-2H,15′H-spiro[naphthalene-1,22′-[20]oxa[13]thia[1,14]diazatetracyclo [14.7.2.0~3,6~.0~19,24~]pentacosa[8,16,18,24]tetraen]-15′-one 13′,13′-dioxide] | 0.107 nM | 84 nM | 
